{
  "source": "patent US6680331B2",
  "about": "“Lactam and thiolactam derivatives as anesthetic and conscious sedation agents” (priority 2001, dated 2004)",
  "key": {"[1]": {"system": "mice", "conditions": "cited from earlier work"}, "[2]": {"system": "Female ICR mice", "test": "Loss of righting reflex (LORR) model of anesthesia", "assay_type": "in vivo", "source_text": "Female ICR mice, weighing between 18 and 31 g were used for all experiments. The animals were housed four in a cage in a […] light/dark cycle with free access to food and water. Animal weight at the time of the experiment ranged from 22 to 33 g. On the day of the experiment, animals were brought to the lab in groups of 6-8. They were not allowed food or water for the duration of the testing period. After each experiment, animals were sacrificed.\nDiethyl lactam was synthesized as described previously (Example 1 and U.S. Pat. Nos. 6,066,666 and 5,776,959) and dissolved in 0.9% saline. All drugs were given by intraperitoneal (i.p.) injections in a volume of 0.01 ml/g body weight.\nThe anesthetic effect was determined using the loss of righting reflex (LORR) model of anesthesia. […] The time to onset and duration of loss of righting reflex was recorded for each animal.\nAnimals were given diethyl lactam at doses of 250, 325, 375, 500, 625, 750, 875 and 1000 mg/kg of body weight, and the time to regain the righting reflex (RR) as well as the duration of LORR were measured (Table 1). […] Other movements include a shiver (one mouse), a head twitch (one mouse), face vibrations (one mouse) and repetitive hindlimb scratching (one mouse)."}, "[3]": {"conditions": "500 mg/kg i.p., mice, ± one standard deviation"}, "[4]": {"conditions": "625 mg/kg i.p., mice, ± one standard deviation"}, "[5]": {"conditions": "750 mg/kg i.p., mice, ± one standard deviation"}, "[6]": {"conditions": "1000 mg/kg i.p., mice, ± one standard deviation"}, "[7]": {"conditions": "1000 mg/kg i.p., two mice excluded from the trial, listed as diethyl lactam"}},
  "note": "“And” between values parts separate entries of the source, which are not always exact repeats. Equal values may be shown once.",
  "data": [
    {"smiles": "CCC1(CC)CCCNC1=O", "note": "[3,3-diethyl-2-piperidinone]", "values": [
      {"measurement": "Sedative activity", "setting": "[1]", "result": "only weak sedative activity"}
    ]},
    {"smiles": "CCC1(CC)CCNC1=O", "note": "[DiethylABL, 3,3-diethyl-2-pyrrolidinone]", "values": [
      {"measurement": "Duration of LORR", "setting": "[2]; 250 mg/kg i.p., mice", "result": 0, "unit": "min"},
      {"measurement": "LORR (time to onset of loss of righting reflex)", "setting": "[2]; 250 mg/kg i.p., mice", "result": "none at 30 min"},
      {"measurement": "Duration of LORR", "setting": "[2]; 325 mg/kg i.p., mice", "result": 0, "unit": "min"},
      {"measurement": "LORR (time to onset of loss of righting reflex)", "setting": "[2]; 325 mg/kg i.p., mice", "result": "none at 30 min"},
      {"measurement": "Duration of LORR", "setting": "[2]; 375 mg/kg i.p., mice", "result": 0, "unit": "min"},
      {"measurement": "LORR (time to onset of loss of righting reflex)", "setting": "[2]; 375 mg/kg i.p., mice", "result": "none at 30 min"},
      {"measurement": "Face vibrations", "setting": "[2]; 500 mg/kg i.p., five mice", "result": "one mouse"},
      {"measurement": "Head twitch", "setting": "[2]; 500 mg/kg i.p., five mice", "result": "one mouse"},
      {"measurement": "Mice seen to twitch", "setting": "[2]; 500 mg/kg i.p., five mice", "result": "Three of the five"},
      {"measurement": "Repetitive hindlimb scratching", "setting": "[2]; 500 mg/kg i.p., five mice", "result": "one mouse"},
      {"measurement": "Shiver", "setting": "[2]; 500 mg/kg i.p., five mice", "result": "one mouse"},
      {"measurement": "Physical movements observed during the experiment", "setting": "[2]; 500 mg/kg i.p., mice", "result": "various physical movements"},
      {"measurement": "Duration of LORR", "setting": "[2]; [3]", "result": "38.8 ± 11.6", "unit": "min"},
      {"measurement": "LORR (time to onset of loss of righting reflex)", "setting": "[2]; [3]", "result": "2.4 ± 1.8", "unit": "min"},
      {"measurement": "Regain RR", "setting": "[2]; [3]", "result": "41 ± 12", "unit": "min"},
      {"measurement": "Duration of LORR", "setting": "[2]; [4]", "result": "51.3 ± 16.2", "unit": "min"},
      {"measurement": "LORR (time to onset of loss of righting reflex)", "setting": "[2]; [4]", "result": "1.7 ± 0.8", "unit": "min"},
      {"measurement": "Regain RR", "setting": "[2]; [4]", "result": "53 ± 16", "unit": "min"},
      {"measurement": "Duration of LORR", "setting": "[2]; [5]", "result": "109.7 ± 2.0", "unit": "min"},
      {"measurement": "LORR (time to onset of loss of righting reflex)", "setting": "[2]; [5]", "result": "0.9 ± 0.3", "unit": "min"},
      {"measurement": "Regain RR", "setting": "[2]; [5]", "result": "110 ± 2", "unit": "min"},
      {"measurement": "Duration of LORR", "setting": "[2]; 875 mg/kg i.p., mice", "result": ">360", "unit": "min"},
      {"measurement": "LORR (time to onset of loss of righting reflex)", "setting": "[2]; 875 mg/kg i.p., mice", "result": 0.8, "unit": "min"},
      {"measurement": "Regain RR", "setting": "[2]; 875 mg/kg i.p., mice", "result": ">360", "unit": "min"},
      {"measurement": "Duration of LORR", "setting": "[2]; [6]", "result": "1470.0 ± 756", "unit": "min"},
      {"measurement": "LORR (time to onset of loss of righting reflex)", "setting": "[2]; [6]", "result": "2.0 ± 2.1", "unit": "min"},
      {"measurement": "Regain RR", "setting": "[2]; [6]", "result": "1470 ± 85", "unit": "min"},
      {"measurement": "LORR (time to onset), individual mice excluded as outliers", "setting": "[2]; [7]", "result": "2.4 min and 4.2 min"},
      {"measurement": "LORR duration, individual mice excluded as outliers", "setting": "[2]; [7]", "result": "156.6 min and 170.3 min"},
      {"measurement": "Regaining RR, individual mice excluded as outliers", "setting": "[2]; [7]", "result": "159 min and 174.5 min"},
      {"measurement": "Time of death after injection", "setting": "[2]; 1000 mg/kg i.p., two mice included in the trial, listed as diethyl lactam", "result": "7.3 min and 4.0 min"}
    ]}
  ]
}
